From patent publication US20150031622A1, “RHOGEF12 IS A THERAPEUTIC TARGET FOR THE TREATMENT OF HEART FAILURE” (MAX-PLANCK-GESELLSCHAFT ZUR FÖRDERUNG DER WISSENSCHAFTEN …, priority 2012, published 2015)
Bridges are numbered along the chain shown (N, C = ends). Where no end group is shown, it is not given here.

System: neonatal rat ventricular myocytes (NRVM)
Assay: qRT-PCR of hypertrophy-specific genes (ANP, β-MHC) in NRVM
Assay type: cell-based
Conditions: NRVM control cells
Description: Neonatal rat ventricular myocytes (NRVM) were isolated from 1-2 days old rat neonates using a kit from Worthington Biochemical Corporation (Lakewood, N.J., USA). After digestion, cells were pre-plated for 1 h to remove nonmyocytes, plated on cell culture dishes pre-coated with 1% gelatin (Sigma-Aldrich) and then cultured in Dulbecco's modified Eagle's medium (DMEM) with 10% fetal bovine serum. The following day, cells were cultured in serum-free DMEM medium containing 100 μM 5-bromo 2′-deoxy-uridine (BrdU; Sigma-Aldrich). NRVM were transfected with siRNAs (Qiagen, Chatsworth, Calif., USA or Sigma-Aldrich) using Lipofectamine RNAiMAX (Invitrogen, San Diego, Calif., USA) 3 h and 20 h after plating according to the manufacturer's instructions. […]
RNA was extracted from left ventricles with the RNA fibrosis tissue kit (Qiagen) and from NRVM or adult mouse cardiomyocytes with the RNeasy Mini kit (Qiagen) according to the manufacture's protocol. […] Reverse transcriptase (RT) reaction was performed using the QuantiTect Reverse Transcription kit (Qiagen). Quantitative RT-PCR was performed using the LightCycler 480 Probe Master or LightCycler 480 SYBR Green Master (Roche). […]
Primers for the analysis of RhoGEF expression were used as described previously^40. Data are in all cases presented after normalization to GAPDH, in some cases the relative change compared to basal conditions was calculated.

endothelin-1 (CSCSSLMDKECVYFCHLDIIW; disulfide 1-15, 3-11; ends not checked; UniProt P05305 53-73, looked up) [ET-1, hypertrophic stimulus, GPCR agonist, purchased from Sigma-Aldrich]
expression of hypertrophy-specific genes (ANP, β-MHC) after stimulus: increased gene expression
